Drawing on US20120264735A1 (priority 2009, published 2012), this text covers IC50 for 23 compounds.

In this assay the target is T1, c-Met kinase (recombinant c-Met) (Homo sapiens, UniProt P08581).
T1 construct: 0.27 nM recombinant c-Met
T1 sequence (P08581 25-1390): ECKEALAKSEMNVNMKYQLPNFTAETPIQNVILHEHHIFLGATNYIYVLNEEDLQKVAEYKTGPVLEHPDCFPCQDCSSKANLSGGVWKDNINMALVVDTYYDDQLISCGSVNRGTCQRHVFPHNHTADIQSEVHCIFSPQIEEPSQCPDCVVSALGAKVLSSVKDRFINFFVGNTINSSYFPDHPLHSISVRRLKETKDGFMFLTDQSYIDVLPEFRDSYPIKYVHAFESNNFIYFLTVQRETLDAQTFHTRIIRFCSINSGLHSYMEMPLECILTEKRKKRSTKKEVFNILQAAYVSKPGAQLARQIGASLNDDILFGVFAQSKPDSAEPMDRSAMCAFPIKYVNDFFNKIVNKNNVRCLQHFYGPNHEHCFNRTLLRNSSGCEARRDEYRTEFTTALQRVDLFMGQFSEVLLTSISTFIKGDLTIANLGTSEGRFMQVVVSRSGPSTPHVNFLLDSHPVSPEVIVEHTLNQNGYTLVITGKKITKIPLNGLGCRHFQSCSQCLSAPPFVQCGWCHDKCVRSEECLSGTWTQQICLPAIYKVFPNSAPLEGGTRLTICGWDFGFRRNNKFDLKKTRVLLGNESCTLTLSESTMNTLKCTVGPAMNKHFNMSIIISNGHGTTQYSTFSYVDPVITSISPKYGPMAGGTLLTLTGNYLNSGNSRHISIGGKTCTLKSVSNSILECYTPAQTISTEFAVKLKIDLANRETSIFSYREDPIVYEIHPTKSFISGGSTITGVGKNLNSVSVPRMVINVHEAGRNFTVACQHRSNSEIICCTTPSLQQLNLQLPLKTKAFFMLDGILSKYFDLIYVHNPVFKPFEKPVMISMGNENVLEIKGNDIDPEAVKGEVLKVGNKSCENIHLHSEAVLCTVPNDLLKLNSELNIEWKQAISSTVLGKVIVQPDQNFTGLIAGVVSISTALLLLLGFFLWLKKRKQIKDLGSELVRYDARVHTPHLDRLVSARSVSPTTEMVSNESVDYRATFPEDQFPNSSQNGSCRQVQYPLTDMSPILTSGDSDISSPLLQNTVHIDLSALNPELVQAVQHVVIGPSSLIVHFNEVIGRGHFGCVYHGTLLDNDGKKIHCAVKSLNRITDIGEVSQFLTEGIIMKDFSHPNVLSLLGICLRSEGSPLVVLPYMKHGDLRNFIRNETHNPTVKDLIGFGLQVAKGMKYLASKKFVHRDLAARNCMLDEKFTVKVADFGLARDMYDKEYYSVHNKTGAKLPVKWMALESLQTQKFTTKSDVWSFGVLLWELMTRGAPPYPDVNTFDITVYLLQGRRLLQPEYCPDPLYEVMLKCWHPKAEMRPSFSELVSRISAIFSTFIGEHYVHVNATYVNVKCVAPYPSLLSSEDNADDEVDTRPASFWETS
Kind of assay: In vitro kinase assay I (homogeneous time-resolved fluorescence tyrosine kinase assay). It counts as biochemical. An outline of the steps: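 Biotinylated peptide (0.5 μM) phosphorylated by 0.2 nM recombinant c-Met with 50 μM MgATP, 60 min at room temperature, pH 7.4, 5% DMSO. EDTA stop; HTRF read with Eu-anti-phosphotyrosine antibody and streptavidin-APC. IC50 from 4-parameter logistic fit.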
In the case of `CC(C)COC(=O)Nc1cccc(Cc2nn(-c3cnn(CCCN(C)C)c3)ccc2=O)c1` [Example 667, 2-Methylpropyl {3-[(1-{1-[3-(dimethylamino)propyl]-1H-pyrazol-4-yl}-4-exo-1,4-dihydropyridazin-3-yl)methyl]phenyl}carbamate], the 50% inhibitory concentration (IC50) fell in the range of 100 to 1000 nM.
Next, `CC(C)(O)COc1cnc(-c2cccc(Cc3nn(-c4cc(Cl)cc(C#N)c4)ccc3=O)c2)nc1` [Example 371, 3-chloro-5-[3-{3-[5-(2-hydroxy-2-methylpropoxy)pyrimidin-2-yl]benzyl}-4-oxopyridazin-1(4H)-yl]benzonitrile]: less than 100 nM; `CCOc1cnc(-c2cccc(C(F)c3nn(-c4cnn(C)c4)ccc3=O)c2)nc1` (single isomer, unassigned) [Example 656, 3-[(R or S)-[3-(5-ethoxypyrimidin-2-yl)phenyl](fluoro)methyl]-1-(1-methyl-1H-pyrazol-4-yl)pyridazin-4(1H)-one]: less than 100 nM.
In the case of `COCCOc1cnc(-c2cccc(Cc3nn(-c4ccc(C#N)cc4)ccc3=O)c2)nc1` [Example 138, 4-[3-{3-[5-(2-methoxyethoxy)pyrimidin-2-yl]benzyl}-4-oxopyridazin-1(4H)-yl]benzonitrile], the IC50 is less than 100 nM.
Take `CCOC(=O)Nc1cccc(Cc2nn(-c3cnn(C(C)C)c3)ccc2=O)c1` [Example 103, ethyl [3-({1-[1-(1-methylethyl)-1H-pyrazol-4-yl]-4-oxo-1,4-dihydropyridazin-3-yl}methyl)phenyl]carbamate]: the IC50 is less than 100 nM.
As to `Cc1ccnc(-c2cccc(C(C)c3nn(-c4cnn(C)c4)ccc3=O)c2)n1` (single isomer, unassigned) [Example 691, 1-(1-methyl-1H-pyrazol-4-yl)-3-{(1R or S)-1-[3-(4-methylpyrimidin-2-yl)phenyl]ethyl} pyridazin-4(1H)-one], the IC50 was less than 100 nM.
In the case of `CC(c1cccc(-c2ncc(OC3CCNCC3)cn2)c1)c1nn(-c2cnn(C)c2)ccc1=O` (racemic) [Example 334, rac-1-(1-Methyl-1H-pyrazol-4-yl)-3-(1-{3-[5-(piperidin-4-yloxy)pyrimidin-2-yl]phenyl}ethyl)pyridazin-4(1H)-one], the IC50 is less than 100 nM.
Then `COCCOc1cnc(-c2cccc(Cc3nn(-c4ccc(C#N)c(F)c4)ccc3=O)c2)nc1` [Example 144, 2-fluoro-4-[3-{3-[5-(2-methoxyethoxy)pyrimidin-2-yl]benzyl}-4-oxopyridazin-1(4H)-yl]benzonitrile], with less than 100 nM.
Next, `O=C(Nc1cccc(Cc2nn(-c3cc(F)c(F)c(F)c3)ccc2=O)c1)OCC1CCC1` [Example 555, cyclobutylmethyl (3-{[4-oxo-1-(3,4,5-trifluorophenyl)-1,4-dihydropyridazin-3-yl]methyl}phenyl)carbamate]: less than 100 nM; `CCn1cc(-n2ccc(=O)c(C(C)c3cccc(-c4ncc(OCc5ccccc5)cn4)c3)n2)cn1` (single isomer, unassigned) [Example 228, 3-((1S or R)-1-{3-[5-(benzyloxy)pyrimidin-2-yl]phenyl}ethyl)-1-(1-ethyl-1H-pyrazol-4-yl)pyridazin-4(1H)-one]: 100 to 1000 nM; `CCCOC(=O)Nc1cccc(Cc2nn(-c3ccncc3)ccc2=O)c1` [Example 30, propyl {3-[(4-oxo-1-pyridin-4-yl-1,4-dihydropyridazin-3-yl)methyl]phenyl}carbamate]: less than 100 nM.
`COCCOC(=O)Nc1cccc(C(C)c2nn(-c3cnn(C)c3)ccc2=O)c1` (single isomer, unassigned) [Example 652, 2-methoxyethyl (3-{(1S or R)-1-[1-(1-methyl-1H-pyrazol-4-yl)-4-oxo-1,4-dihydropyridazin-3-yl]ethyl}phenyl)carbamate]: the 50% inhibitory concentration (IC50) was less than 100 nM.
Then `CCOC(=O)Nc1cccc(Cc2nn(-c3ccn(C)n3)ccc2=O)c1` [Example 25, ethyl (3-{[1-(1-methyl-1H-pyrazol-3-yl)-4-oxo-1,4-dihydropyridazin-3-yl]methyl}phenyl)carbamate], with 100 to 1000 nM; and `Cn1cc(-n2ccc(=O)c(Cc3cccc(-c4ncc([C@]5(F)CCNC[C@@H]5O)cn4)c3)n2)cn1` (racemic) [Example 749, rac-3-({3-[5-(trans-4-Fluoro-3-hydroxypiperidin-4-yl)pyrimidin-2-yl]benzyl}-1-(1-methyl-1H-pyrazol-4-yl)pyridazin-4(1H)-one], with less than 100 nM; and `Cn1cc(-n2ccc(=O)c(Cc3cccc(NC(=O)OCC(F)CN)c3)n2)cn1` (racemic) [Example 621, rac-3-amino-2-fluoropropyl (3-{[1-(1-methyl-1H-pyrazol-4-yl)-4-oxo-1,4-dihydropyridazin-3-yl]methyl}phenyl)carbamate], with less than 100 nM.
Next, `CCCn1cnc(-c2cccc(C(C)c3nn(-c4cnn(C)c4)ccc3=O)c2)n1` (single isomer, unassigned) [Example 685, 1-(1-methyl-1H-pyrazol-4-yl)-3-{(1R or S)-1-[3-(1-propyl-1H-1,2,4-triazol-3-yl)phenyl]ethyl} pyridazin-4(1H)-one]: less than 100 nM; `COCCN1CCC(COC(=O)Nc2cccc(Cc3nn(-c4cccc(C#N)c4)ccc3=O)c2)C1` (racemic) [Example 585, rac-[1-(2-methoxyethyl)pyrrolidin-3-yl]methyl (3-{[1-(3-cyanophenyl)-4-oxo-1,4-dihydropyridazin-3-yl]methyl}phenyl)carbamate]: less than 100 nM.
Next, `Cn1cc(-n2ccc(=O)c(Cc3cccc(-c4ncc(OCc5noc(C6CC6)n5)cn4)c3)n2)cn1` [Example 282, 3-(3-{5-[(5-cyclopropyl-1,2,4-oxadiazol-3-yl)methoxy]pyrimidin-2-yl}benzyl)-1-(1-methyl-1H-pyrazol-4-yl)pyridazin-4(1H)-one]: less than 100 nM.
As to `CCOc1cnc(-c2cccc(Cc3nn(-c4cnn(C5CN(C(=O)OC(C)(C)C)C5)c4)ccc3=O)c2)nc1` [Example 661, tert-butyl 3-(4-{3-[3-(5-ethoxypyrimidin-2-yl)benzyl]-4-oxopyridazin-1(4H)-yl}-1H-pyrazol-1-yl)acetidine-1-carboxylate], the 50% inhibitory concentration (IC50) is less than 100 nM.
Then `Cc1noc(C)c1-c1cnc(-c2cccc(Cc3nn(-c4cnn(C)c4)ccc3=O)c2)nc1` [Example 424, 3-{3-[5-(3,5-dimethylisoxa-zol-4-yl)pyrimidin-2-yl]benzyl}-1-(1-methyl-1H-pyrazol-4-yl)pyridazin-4(1H)-one], with 100 to 1000 nM; and `Cn1cc(-n2ccc(=O)c(Cc3cccc(-c4ncc(OC5COC5)cn4)c3)n2)cn1` [Example 164, 1-(1-methyl-1H-pyrazol-4-yl)-3-{3-[5-(oxetan-3-yloxy)pyrimidin-2-yl]benzyl}pyridazin-4(1H)-one], with less than 100 nM.
Then `Cn1cc(-n2ccc(=O)c(Cc3cccc(NC(=O)NCc4ccccc4)c3)n2)cn1` [Example 490, 1-benzyl-3-(3-{[1-(1-methyl-1H-pyrazol-4-yl)-4-oxo-1,4-dihydropyridazin-3-yl]methyl}phenyl)urea], with less than 100 nM.
Then `Cn1cc(-n2ccc(=O)c(Cc3cccc(NC(=O)OCC4CCOC(C)(C)C4)c3)n2)cn1` (racemic) [Example 611, rac-(2,2-dimethyl-tetrahydro-2H-pyran-4-yl)methyl (3-{[1-(1-methyl-1H-pyrazol-4-yl)-4-oxo-1,4-dihydropyridazin-3-yl]methyl}phenyl)carbamate], with less than 100 nM.

By IC50 is commonly meant the concentration that gives 50% inhibition.
